# Laboratory results: patent US10239849B2 (Merck Sharp & Dohme Corp., priority 2015, dated 2019)
# Columns and labels:
# [1] = biological target: T1, glutathione-S-transferase (GST) tagged LXRbeta LBD (ligand binding domain) (Homo sapiens, UniProt P55055); experiment: LanthaScreen TR-FRET Liver X Receptor Coactivator Assay, LXR beta-LBD; type: biochemical; settings: for Emax: efficacy in relation to reference dual agonist T1317, read-out: LXR beta activity at max dose (%) (Emax); for EC50: potency (Inflection Point) of co-activator recruitment, TR-FRET, read-out: LXR beta IP
# T1 construct: purchased Invitrogen pv4658.pps
# T1 sequence (P55055 222-460 limits assumed): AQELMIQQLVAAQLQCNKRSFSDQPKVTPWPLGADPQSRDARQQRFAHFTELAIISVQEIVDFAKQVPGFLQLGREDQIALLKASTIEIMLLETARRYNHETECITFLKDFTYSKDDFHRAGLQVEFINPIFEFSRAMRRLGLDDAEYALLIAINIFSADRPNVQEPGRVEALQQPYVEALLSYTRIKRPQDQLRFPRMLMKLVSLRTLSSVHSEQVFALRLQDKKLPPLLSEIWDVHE
# Summary of the method: (§1)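 Test ligands were combined with the receptor LBD, after which terbium-labelled anti-GST antibody and a fluorescein-tagged coactivator peptide were introduced together. Plates sat at room temperature, then time-resolved FRET was measured.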
# [2] = biological target: T2, glutathione-S-transferase (GST) tagged LXRalpha LBD (ligand binding domain) (Homo sapiens, UniProt Q13133); experiment: LanthaScreen TR-FRET Liver X Receptor Coactivator Assay, LXR alpha-LBD; type: biochemical; settings: for Emax: efficacy in relation to reference dual agonist T1317, read-out: LXR alpha activity at max dose (%) (Emax); for EC50 / LXR alpha IP (nM): potency (Inflection Point) of co-activator recruitment, TR-FRET; for EC50: read-out: LXR alpha IP
# T2 construct: purchased Invitrogen pv4655
# T2 sequence (Q13133 209-447 limits assumed): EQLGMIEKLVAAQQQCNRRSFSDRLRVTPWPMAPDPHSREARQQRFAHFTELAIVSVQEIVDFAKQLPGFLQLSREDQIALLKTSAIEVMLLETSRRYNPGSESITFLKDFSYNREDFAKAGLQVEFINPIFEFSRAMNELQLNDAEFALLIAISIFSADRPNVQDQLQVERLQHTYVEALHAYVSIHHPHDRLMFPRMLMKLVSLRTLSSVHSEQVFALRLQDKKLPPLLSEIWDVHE
# Summary of the method: as §1
SMILES,Emax [1] [%],EC50 [1] [µM],Emax [2] [%],EC50 [2] [µM],LXR alpha IP (nM) [2]
"CC(C)(C)OC(=O)N1CCN(c2ncc(-c3ccc(C(=O)N4CCOCC4)c(Cl)c3)cc2C#N)CC1 [Example 5-14, tert-butyl 4-{5-[3-chloro-4-(morpholin-4-ylcarbonyl)phenyl]-3-cyanopyridin-2-yl}piperazine-1-carboxylate]",63,0.332,38,12.6,
"CN(CCCO)C(=O)c1ccc(-c2cnc(N3CCN(C(=O)OC(C)(C)C)CC3)c(C#N)c2)cc1Cl [Example 5-15, tert-butyl 4-(5-{3-chloro-4-[(3-hydroxypropyl) (methyl)carbamoyl]phenyl}-3-cyanopyridin-2-yl)piperazine-1-carboxylate]",70,0.261,42,6.87,
"CC(C)(C)OC(=O)N1CCN(c2ncc(-c3ccc(C(=O)NCc4ncc[nH]4)c(Cl)c3)cc2C#N)CC1 [Example 5-16, tert-butyl 4-(5-{3-chloro-4-[(1H-imidazol-2-ylmethyl)carbamoyl]phenyl}-3-cyanopyridin-2-yl)piperazine-1-carboxylate]",91,0.043,68,1.46,
"CC(C)(C)OC(=O)N1CCN(c2ncc(-c3ccc(C(=O)N4CCC(O)CC4)c(Cl)c3)cc2C#N)CC1 [Example 5-17, tert-butyl 4-(5-{3-chloro-4-[(4-hydroxypiperidin-1-yl)carbonyl]phenyl}-3-cyanopyridin-2-yl)piperazine-1-carboxylate]",47,0.415,17,,No IP
"CN(CC(O)CO)C(=O)c1ccc(-c2cnc(N3CCN(C(=O)OC(C)(C)C)CC3)c(C#N)c2)cc1Cl (stereo not drawn) [Example 5-18, tert-butyl 4-(5-{3-chloro-4-[(2,3-dihydroxypropyl) (methyl)carbamoyl]phenyl}-3-cyanopyridin-2-yl)piperazine-1-carboxylate]",70,0.301,40,8.6,
"CC(C)(C)OC(=O)N1CCN(c2ncc(-c3ccc(C(=O)N(CCO)CCO)c(Cl)c3)cc2C#N)CC1 [Example 5-19, tert-butyl 4-(5-{4-[bis(2-hydroxyethyl)carbamoyl]-3-chlorophenyl}-3-cyanopyridin-2-yl)piperazine-1-carboxylate]",93,0.102,68,2.98,
"CC(C)(C)OC(=O)N1CCN(c2ncc(-c3ccc(C(=O)N(CCCO)C4CC4)c(Cl)c3)cc2C#N)CC1 [Example 5-20, tert-butyl 4-(5-{3-chloro-4-[cyclopropyl(3-hydroxypropyl)carbamoyl]phenyl}-3-cyanopyridin-2-yl)piperazine-1-carboxylate]",55,0.565,31,4.07,
"CN(CCn1ccnc1)C(=O)c1ccc(-c2cnc(N3CCN(C(=O)OC(C)(C)C)CC3)c(C#N)c2)cc1Cl [Example 5-21, tert-butyl 4-[5-(3-chloro-4-{[2-(1H-imidazol-1-yl)ethyl](methyl)carbamoyl}phenyl)-3-cyanopyridin-2-yl]piperazine-1-carboxylate]",81,0.931,37,9.24,
"CN(Cc1cnn(C)c1)C(=O)c1ccc(-c2cnc(N3CCN(C(=O)OC(C)(C)C)CC3)c(C#N)c2)cc1Cl [Example 5-22, tert-butyl 4-[5-(3-chloro-4-{methyl[(1-methyl-1H-pyrazol-4-yl)methyl]carbamoyl}phenyl)-3-cyanopyridin-2-yl]piperazine-1-carboxylate]",65,0.382,34,9.7,
"CN(CCn1cccn1)C(=O)c1ccc(-c2cnc(N3CCN(C(=O)OC(C)(C)C)CC3)c(C#N)c2)cc1Cl [Example 5-23, tert-butyl 4-[5-(3-chloro-4-{methyl[2-(1H-pyrazol-1-yl)ethyl]carbamoyl}phenyl)-3-cyanopyridin-2-yl]piperazine-1-carboxylate]",74,0.282,46,19.3,
"CN(CCn1cncn1)C(=O)c1ccc(-c2cnc(N3CCN(C(=O)OC(C)(C)C)CC3)c(C#N)c2)cc1Cl [Example 5-24, tert-butyl 4-[5-(3-chloro-4-{methyl[2-(1H-1,2,4-triazol-1-yl)ethyl]carbamoyl}phenyl)-3-cyanopyridin-2-yl]piperazine-1-carboxylate]",71,0.118,52,8.46,
"CC(O)CN(CC(C)O)C(=O)c1ccc(-c2cnc(N3CCN(C(=O)OC(C)(C)C)CC3)c(C#N)c2)cc1Cl (stereo not drawn) [Example 5-25, tert-butyl 4-(5-{4-[bis(2-hydroxypropyl)carbamoyl]-3-chlorophenyl}-3-cyanopyridin-2-yl)piperazine-1-carboxylate]",56,0.741,36,7.89,
"CN(CCc1ccccc1)C(=O)c1ccc(-c2cnc(N3CCN(C(=O)OC(C)(C)C)CC3)c(C#N)c2)cc1Cl [Example 5-26, tert-butyl 4-(5-{3-chloro-4-[methyl(2-phenylethyl)carbamoyl]phenyl}-3-cyanopyridin-2-yl)piperazine-1-carboxylate]",74,4.27,48,25.9,
"CN(CCc1ccncc1)C(=O)c1ccc(-c2cnc(N3CCN(C(=O)OC(C)(C)C)CC3)c(C#N)c2)cc1Cl [Example 5-27, tert-butyl 4-(5-{3-chloro-4-[methyl(2-pyridin-4-ylethyl)carbamoyl]phenyl}-3-cyanopyridin-2-yl)piperazine-1-carboxylate]",76,0.705,17,,No IP
"Cc1nc(CCN(C)C(=O)c2ccc(-c3cnc(N4CCN(C(=O)OC(C)(C)C)CC4)c(C#N)c3)cc2Cl)no1 [Example 5-28, tert-butyl 4-[5-(3-chloro-4-{methyl[2-(5-methyl-1,2,4-oxadiazol-3-yl)ethyl]carbamoyl}phenyl)-3-cyanopyridin-2-yl]piperazine-1-carboxylate]",84,0.164,71,3.71,
"CN(CC(O)c1ccccc1)C(=O)c1ccc(-c2cnc(N3CCN(C(=O)OC(C)(C)C)CC3)c(C#N)c2)cc1Cl (stereo not drawn) [Example 5-29, tert-butyl 4-(5-{3-chloro-4-[(2-hydroxy-2-phenylethyl)(methyl)carbamoyl]phenyl}-3-cyanopyridin-2-yl)piperazine-1-carboxylate]",75,1.17,30,6.58,
"CC(C)(C)OC(=O)N1CCN(c2ncc(-c3ccc(C(=O)N(CCO)Cc4ccccc4)c(Cl)c3)cc2C#N)CC1 [Example 5-30, tert-butyl 4-(5-{4-[benzyl(2-hydroxyethyl)carbamoyl]-3-chlorophenyl}-3-cyanopyridin-2-yl)piperazine-1-carboxylate]",73,1.19,57,10,
"CN(CC(O)c1ccc(O)cc1)C(=O)c1ccc(-c2cnc(N3CCN(C(=O)OC(C)(C)C)CC3)c(C#N)c2)cc1Cl (stereo not drawn) [Example 5-31, tert-butyl 4-[5-(3-chloro-4-{[2-hydroxy-2-(4-hydroxyphenyl)ethyl](methyl)carbamoyl}phenyl)-3-cyanopyridin-2-yl]piperazine-1-carboxylate]",67,1.86,27,8.53,
"C=CCN(C(=O)c1ccc(-c2cnc(N3CCN(C(=O)OC(C)(C)C)CC3)c(C#N)c2)cc1Cl)C1CCS(=O)(=O)C1 (stereo not drawn) [Example 5-32, tert-butyl 4-(5-{3-chloro-4-[(1,1-dioxidotetrahydro-thiophen-3-yl)(prop-2-en-1-yl)carbamoyl]phenyl}-3-cyanopyridin-2-yl)piperazine-1-carboxylate]",78,2.21,44,23.9,
"COc1ccc2nc(CCN(C)C(=O)c3ccc(-c4cnc(N5CCN(C(=O)OC(C)(C)C)CC5)c(C#N)c4)cc3Cl)[nH]c2c1 [Example 5-33, tert-butyl 4-[5-(3-chloro-4-{[2-(6-methoxy-1H-benzimidazol-2-yl)ethyl](methyl)carbamoyl}phenyl)-3-cyanopyridin-2-yl]piperazine-1-carboxylate]",78,0.703,52,4.83,
"CN(CCn1cncn1)C(=O)c1ccc(-c2cnc(N3CCN(C(=O)[C@](O)(c4ccccc4)C(F)(F)F)CC3)c(C#N)c2)cc1Cl [Example 6-1, 2-chloro-4-(5-cyano-6-{4-[(2R)-3,3,3-trifluoro-2-hydroxy-2-phenylpropanoyl]piperazin-1-yl}pyridin-3-yl)-N-methyl-N-[2-(1H-1,2,4-triazol-yl)ethyl]benzamide]",101,0.002,33,1.17,
